Measured values published in patent US9126935B2, “Aurora kinase modulators and methods of use” (Amgen Inc., priority 2008, dated 2015).

Tests used:
AuroraA-TPX2 = target: T1, AuroraA-TPX2 (Homo sapiens, UniProt O14965); assay: AuroraA-TPX2 Homogeneous Time Resolved Fluorescent (HTRF) kinase assay; format: biochemical; settings: average; ATP about 1 μM; read-out: AurA _IC50_ IP (uM Avg)
T1 construct: 20 μL of AuroraA-TPX2 KD GST for a final volume of about 41 μL; GST
T1 sequence (O14965 133-383 limits assumed): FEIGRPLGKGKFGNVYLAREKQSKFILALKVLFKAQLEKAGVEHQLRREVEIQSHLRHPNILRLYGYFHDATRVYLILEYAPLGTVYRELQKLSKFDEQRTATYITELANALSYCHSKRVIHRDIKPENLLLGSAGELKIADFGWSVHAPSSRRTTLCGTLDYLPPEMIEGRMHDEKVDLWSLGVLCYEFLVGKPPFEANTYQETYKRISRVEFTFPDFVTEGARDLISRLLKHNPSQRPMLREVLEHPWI
T1 sequence (Q9ULW0 1-43 partner limits assumed): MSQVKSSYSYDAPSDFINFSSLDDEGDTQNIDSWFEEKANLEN
Protocol: The Aurora-A HTRF assay begins with Aurora-A in the presence of ATP phosphorylating the biotinylated peptide PLK. The reaction incubates for about 120 min. Detection reagents are added to quench the reaction. These agents stop the reaction by diluting out the enzyme and chelating the metals due to the presence of EDTA. After addition, the assay is incubated overnight to allow the detection reagents to equilibrate.
The AuroraA HTRF assay comprises 1 μL of compound in 100% DMSO, 20 μL of ATP and biotinylated PLK, and 20 μL of AuroraA-TPX2 KD GST for a final volume of about 41 μL. The final concentration of PLK is about 1 μM. The final concentration of ATP is about 1 μM (Km(app)=1 μM+/−0.1) and the final concentration of AuroraA is about 5 nM. Buffer conditions are as follows: 60 mM HEPES pH 7.5, 25 mM NaCl, 10 mM MgCl, 2 mM DTT, 0.05% BSA.
(§1) The assay is quenched and stopped with 160 μL of detection reagent. Detection reagents are as follows: Buffer made of 50 mM Tris, pH 7.5, 100 mM NaCl, 3 mM EDTA, 0.05% BSA, 0.1% Tween20. Added to this buffer prior to reading is Steptavidin allophycocyanin (SA-APC) at a final conc in the assay of 0.0005 mg/mL, and europilated anti-phosphoPLK Ab (Eu-anti-PLK) at a final conc of 0.02 nM.
(§2) The assay plate is read in either a Discovery or a RubyStar. The eu-anti-PLK is excited at 320 nm and emits at 615 nm to excite the SA-APC which in turn emits at 655 nm. The ratio of SA-APC at 655 nm (excited due to close proximity to the Eu-anti-PLK because of phosphorylation of the peptide) to free Eu-anti-PLK at 615 nm will give substrate phosphorylation.

AuroraB = target: T2, AuroraB (Homo sapiens, UniProt Q96GD4); assay: AuroraB Homogeneous Time Resolved Fluorescent (HTRF) kinase assay; format: biochemical; settings: average; ATP 23 μM; read-out: AurB_IC50_IP (uM Avg)
T2 construct: 20 μL of AuroraB FL His for a final volume of 41 μL; His
Protocol: The AuroraB HTRF assay begins with AuroraB in the presence of ATP phosphorylating the biotinylated peptide Histone H3. The reaction incubates for about 90 min. the reaction is quenched by addition of detection reagents, which stop the reaction by diluting out the enzyme and chelating the metals due to the presence of EDTA. After addition, the assay is incubated for about 60 min to allow detection reagents to equilibrate.
The AuroraB HTRF assay comprises 1 μL of compound in 100% DMSO, 20 μL of ATP and biotinylated Histone H3, and 20 μL of AuroraB FL His for a final volume of 41 μL. The final concentration of Histone H3 is 0.1 μM. The final concentration of ATP is 23 μM (Km(app)=23 μM+/−2.6) and the final concentration of AuroraB is 400 pM. Buffer conditions are as follows: 50 mM HEPES pH 7.5, 5 mM NaCl, 0.5 mM MgCl, 0.5 mM MnCl, 2 mM DTT, 0.05% BSA.
as §1, with “0.001” for “0.0005”, “anti-phosphoHistoneH3” for “anti-phosphoPLK”, “(Eu-anti-His H3)” for “(Eu-anti-PLK)”, “0.064” for “0.02”
as §2, with “The eu-anti-His H3” for “The eu-anti-PLK”, “the Eu-anti-H is H3” for “the Eu-anti-PLK”, “free Eu-anti-His H3” for “free Eu-anti-PLK”

HeLa cells = assay: HeLa cell 24 hr ploidy assay; format: cell-based; settings: Homo sapiens, 24 hrs treatment, average, read-out: 24h_4N Ploidy EC50_IP (uM Avg)
Protocol: The purpose of this assay is to evaluate the ability of selected individual compounds to induce Deoxyribonucleic acid (DNA) content (ploidy) in cells through failed cell division. Cell cycle analysis is a rapid and efficient way to evaluate the status of DNA content (ploidy) of a given cell. HeLa cells (1×10^4 HeLa cells/well) in 100 ul of media (MEM+10% FBS) were plated in 96-well plates (Packard View) and cultured for 24 hrs at 37° C. maintained in a 5% CO2 atmosphere. The following day, cells were treated for 24 hrs with inhibitor compounds (10 pt. Dose ranging from 0.0024-1.25 umol/L). The compounds were serially diluted in DMSO (0.25% final concentration). The cells were fixed (3.7% Formaldehyde and 1% glutaraldehyde) and permeabilized (1×PBS with 1% BSA and 0.2% Triton X-100) in preparation for nuclear staining. The well plates were stained for 45 minutes at RT in the dark using Hoechest 33342 nuclear stain at 0.5 ug·ml (Stock of 10 mg/ml, Invitrogen, CA, Cat # H3570). The nuclear stain was removed by aspiration and the cells were washed with wash buffer. A Cellomics Array Scan Vti plate reader was used to acquire the DNA ploidy data of the cells using Cell Cycle bioapplication. Numbers for each of “valid cell count/well”, “% of 4N cells” and “% of >4Ncells” were calculated with the assistance of an Activity Base 5.1ca software and dose curves were generated using an XLFit software. With XLFit, final EC50 IP and EC50 transit values, as well as the Max and Min, were calculated for each curve.

T2 sequence (Q96GD4 whole entry): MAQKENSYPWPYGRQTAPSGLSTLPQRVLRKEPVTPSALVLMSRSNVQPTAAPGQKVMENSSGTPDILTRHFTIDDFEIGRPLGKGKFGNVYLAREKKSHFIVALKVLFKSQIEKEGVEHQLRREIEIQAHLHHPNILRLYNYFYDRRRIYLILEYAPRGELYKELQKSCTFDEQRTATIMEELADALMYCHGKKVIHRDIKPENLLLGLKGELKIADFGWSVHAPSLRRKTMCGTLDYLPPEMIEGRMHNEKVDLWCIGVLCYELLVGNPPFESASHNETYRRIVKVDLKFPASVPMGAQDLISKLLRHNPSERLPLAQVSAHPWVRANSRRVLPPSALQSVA

Question: With `COc1ccc2c(Oc3ccc(NC(=O)c4ccccc4Nc4ccccc4)cc3F)ccnc2c1` [Example 17, N-(3-fluoro-4-(7-methoxyquinolin-4-yloxy)phenyl)-2-(phenylamino)benzamide] as the compound, how does the IC50 (AuroraA-TPX2) read?
Answer: < 0.1 µM

Question: And the IC50 (AuroraB)?
Answer: < 0.1 µM

Question: What about the EC50 (HeLa cells) of the same compound?
Answer: 0.1 to 0.5 µM

Question: Which IC50 (AuroraA-TPX2) does the source give for `COc1cnc2c(Oc3ccc(NC(=O)c4cc(F)ccc4Nc4ccccc4)cc3)ccnc2c1` [Example 14, 5-fluoro-N-(4-(7-methoxy-1,5-naphthyridin-4-yloxy)phenyl)-2-(phenylamino)benzamide] here?
Answer: < 0.1 µM

Question: And the IC50 (AuroraB)?
Answer: < 0.1 µM

Question: What about the EC50 (HeLa cells) of the same compound?
Answer: < 0.1 µM

Question: `Nc1nccc(Oc2ccc(NC(=O)c3ccccc3Nc3ccc(F)cc3)cc2)n1` [Example 18, N-(4-(2-aminopyrimidin-4-yloxy)phenyl)-2-(4-fluorophenylamino)benzamide] was tested. Which IC50 (AuroraA-TPX2) did it give?
Answer: 0.1 to 0.5 µM

Question: What about the IC50 (AuroraB) of the same compound?
Answer: 0.1 to 0.5 µM

Question: What about the EC50 (HeLa cells) of the same compound?
Answer: 1 to 5 µM

Question: `CNC(=O)c1cc(Oc2ccc(NC(=O)c3ccccc3Nc3ccccc3)cc2)ccn1` [Example 21, N-methyl-4-(4-(2-(phenylamino)benzamido)phenoxy)picolinamide] was tested. Which IC50 (AuroraA-TPX2) did it give?
Answer: 1 to 5 µM

Question: What about the IC50 (AuroraB) of the same compound?
Answer: 0.1 to 0.5 µM

Question: And the EC50 (HeLa cells)?
Answer: 1 to 5 µM

Question: What does the source list for `COc1cnc2c(Oc3ccc(NC(=O)c4ccccc4Nc4ccccc4)cc3)ccnc2c1` [Example 15, N-(4-(7-methoxy-1,5-naphthyridin-4-yloxy)phenyl)-2-(phenylamino)benzamide]?
Answer: IC50 (AuroraA-TPX2): < 0.1 µM; IC50 (AuroraB): < 0.1 µM; EC50 (HeLa cells): < 0.1 µM

Question: What does the source list for `COc1cc2nccc(Oc3ccc(NC(=O)c4ccccc4Nc4ccc(F)cc4)cc3)c2cc1OC` [Example 11, N-(4-(6,7-dimethoxyquinolin-4-yloxy)phenyl)-2-(4-fluorophenylamino)benzamide]?
Answer: IC50 (AuroraA-TPX2): < 0.1 µM; IC50 (AuroraB): < 0.1 µM; EC50 (HeLa cells): < 0.1 µM

Question: Which results are given for `COc1cnc2c(Sc3ccc(NC(=O)c4ccccc4NN4CCCCC4)cc3)ccnc2c1` [Example 19, N-(4-(7-methoxy-1,5-naphthyridin-4-ylthio)phenyl)-2-(piperidin-1-ylamino)benzamide]?
Answer: IC50 (AuroraA-TPX2): 0.5 to 1 µM; IC50 (AuroraB): < 0.1 µM; EC50 (HeLa cells): 0.5 to 1 µM

Question: What does the source list for `COc1cc2nccc(Oc3ccc(NC(=O)c4ccccc4Nc4cccc(F)c4)cc3)c2cc1OC` [Example 13, N-(4-(6,7-dimethoxyquinolin-4-yloxy)phenyl)-2-(3-fluorophenylamino)benzamide]?
Answer: IC50 (AuroraA-TPX2): < 0.1 µM; IC50 (AuroraB): < 0.1 µM; EC50 (HeLa cells): < 0.1 µM

Question: How did the IC50 (AuroraA-TPX2) turn out when `COc1cnc2c(Oc3ccc(NC(=O)c4ccccc4NN4CCCCC4)cc3)ccnc2c1` [Example 20, N-(4-(7-methoxy-1,5-naphthyridin-4-yloxy)phenyl)-2-(piperidin-1-ylamino)benzamide] was run?
Answer: 0.5 to 1 µM

Question: And the IC50 (AuroraB)?
Answer: 0.1 to 0.5 µM

Question: And the EC50 (HeLa cells)?
Answer: 1 to 5 µM

Question: `COc1cnc2c(Sc3ccc(NC(=O)c4ccccc4NN4CCC(OC)CC4)cc3)ccnc2c1` [Example 22, N-(4-(7-methoxy-1,5-naphthyridin-4-ylthio)phenyl)-2-(4-methoxypiperidin-1-ylamino)benzamide] was tested. Which IC50 (AuroraA-TPX2) did it give?
Answer: 1 to 5 µM

Question: And the IC50 (AuroraB)?
Answer: < 0.1 µM

Question: And the EC50 (HeLa cells)?
Answer: 0.5 to 1 µM

Question: Which IC50 (AuroraA-TPX2) does the source give for `COc1cc2nccc(Oc3ccc(NC(=O)c4ccccc4Nc4ccccc4)cc3F)c2cc1OC` [Example 16, N-(4-(6,7-dimethoxyquinolin-4-yloxy)-3-fluorophenyl)-2-(phenylamino)benzamide] here?
Answer: < 0.1 µM

Question: What about the IC50 (AuroraB) of the same compound?
Answer: < 0.1 µM

Question: Which results are given for `COc1cc2nccc(Oc3ccc(NC(=O)c4ccccc4Nc4ccccc4)cc3)c2cc1OC` [Example 12, N-(4-(6,7-dimethoxyquinolin-4-yloxy)phenyl)-2-(phenylamino)benzamide]?
Answer: IC50 (AuroraA-TPX2): < 0.1 µM; IC50 (AuroraB): < 0.1 µM; EC50 (HeLa cells): < 0.1 µM
